These results are taken from patent US11702404B2, “GLP-1R modulating compounds” (priority 2019, dated 2023).

The target of one series is GLP-1R (Homo sapiens, UniProt P43220). Briefly: GLP-1R activation: cAMP increase in CHO cells stably expressing GLP-1R. The settings on record: cAMP increase, CHO cells stably expressing GLP-1R, 10 point dose response, 30 minutes incubation; read-out: EC50. Format: cell-based.
The nature of series [1]: Microsomal stability, human liver microsomes (predicted hepatic clearance). The settings on record: predicted from in vitro microsomal stability data.

The structures appear in SMILES notation.

Chain of GLP-1R (P43220 24-463): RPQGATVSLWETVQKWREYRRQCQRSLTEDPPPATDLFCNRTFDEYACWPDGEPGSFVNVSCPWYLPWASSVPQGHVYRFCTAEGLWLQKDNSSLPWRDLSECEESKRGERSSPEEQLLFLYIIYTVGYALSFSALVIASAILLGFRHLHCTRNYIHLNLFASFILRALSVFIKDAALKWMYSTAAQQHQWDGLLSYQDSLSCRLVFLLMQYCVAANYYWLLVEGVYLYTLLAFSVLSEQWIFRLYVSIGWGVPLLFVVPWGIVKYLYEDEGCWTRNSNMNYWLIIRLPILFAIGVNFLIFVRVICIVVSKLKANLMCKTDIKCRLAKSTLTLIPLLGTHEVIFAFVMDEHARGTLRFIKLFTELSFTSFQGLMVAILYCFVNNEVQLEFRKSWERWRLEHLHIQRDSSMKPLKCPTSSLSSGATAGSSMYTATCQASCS

For orientation: EC50 means the midpoint of the concentration-response curve. For the compound `N#Cc1ccc(COc2cccc(-c3cc(F)c(Cc4nc5ccc(C(=O)O)cc5n4CC45CC(C4)C(C(F)(F)F)O5)cc3F)n2)c(F)c1` (stereo not shown) [Example 737], the EC50 on GLP-1R was 1.89 nM. The “Predicted Hepatic Clearance (Pred. Cl.)” value in series [1] is 1.83 mL/min/kg.
Taken in the same sequence, the figures for `COCCn1c(Cc2ccc(-c3cccc(OCc4ccc(C#N)cc4F)n3)cc2C#Cc2ccccc2)nc2ccc(C(=O)O)cc21` [Example 237, 2-(4-(6-((4-cyano-2-fluorobenzyl)oxy)pyridin-2-yl)-2-(phenylethynyl)benzyl)-1-(2-methoxyethyl)-1H-benzo[d]imidazole-6-carboxylic acid] were 19.2 nM and 11.2 mL/min/kg.
The matching figures for `COCCn1c(Cc2cc(F)c(-c3ccc(F)c(OCc4ccc(C#N)cc4F)n3)cc2C)nc2ccc(C(=O)O)cc21` [Example 673]: 3.54 nM and 4.5 mL/min/kg.
For `N#Cc1ccc(COc2cccc(-c3ccc(Cc4nc5ccc(C(=O)O)cc5n4CC4(C5CC5)CC4)c(F)c3)n2)c(F)c1` [Example 293, 1-([1,1′-bi(cyclopropan)]-1-ylmethyl)-2-(4-(6-((4-cyano-2-fluorobenzyl)oxy)pyridin-2-yl)-2-fluorobenzyl)-1H-benzo[d]imidazole-6-carboxylic acid], the EC50 on GLP-1R came out at 3.13 nM. Further, the “Predicted Hepatic Clearance (Pred. Cl.)” value in series [1] was under 1.83 mL/min/kg.
The matching figures for `N#Cc1ccc(COc2nc(-c3cc(F)c(Cc4nc5ccc(C(=O)O)cc5n4C[C@@H]4CCO4)c(F)c3F)ncc2F)c(F)c1` [Example 166, (S)-2-(4-(4-((4-cyano-2-fluorobenzyl)oxy)-5-fluoropyrimidin-2-yl)-2,3,6-trifluorobenzyl)-1-(oxetan-2-ylmethyl)-1H-benzo[d]imidazole-6-carboxylic acid]: 0.06 nM and 4.83 mL/min/kg.
Take `N#Cc1ccc(COc2cccc(-c3cc(F)c(Cc4nc5ccc(C(=O)O)cc5n4CC4CCOCC4)cc3F)n2)c(F)c1` [Example 546, 2-(4-(6-((4-cyano-2-fluorobenzyl)oxy)pyridin-2-yl)-2,5-difluorobenzyl)-1-((tetrahydro-2H-pyran-4-yl)methyl)-1H-benzo[d]imidazole-carboxylic acid]: the EC50 on GLP-1R is 0.33 nM. For the same compound, the “Predicted Hepatic Clearance (Pred. Cl.)” value in series [1] was 8.83 mL/min/kg.
Take `COC1(Cn2c(Cc3cc(F)c(-c4cccc(OCc5ccc(C#N)cc5F)n4)cc3F)nc3ccc(C(=O)O)cc32)CCC1` [Example 747]: on GLP-1R, the EC50 is 0.81 nM. Also, the “Predicted Hepatic Clearance (Pred. Cl.)” value in series [1] was 7.33 mL/min/kg.
The matching figures for `COCCn1c(Cc2cc(F)c(-c3cccc(OCc4ccc(C#N)cc4)n3)cc2F)nc2ccc(C(=O)O)cc21` [Example 604, 2-(4-(6-((4-cyanobenzyl)oxy)pyridin-2-yl)-2,5-difluorobenzyl)-1-(2-methoxyethyl)-1H-benzo[d]imidazole-6-carboxylic acid]: 0.92 nM and 4.5 mL/min/kg.
Taken in the same sequence, the figures for `N#Cc1ccc(COc2ncccc2-c2cc(F)c(Cc3nc4ccc(C(=O)O)cc4n3CC3(CF)CC3)c(F)c2)c(F)c1` [Example 199, 2-(4-(2-((4-cyano-2-fluorobenzyl)oxy)pyridin-3-yl)-2,6-difluorobenzyl)-1-((1-(fluoromethyl)cyclopropyl)methyl)-1H-benzo[d]imidazole-carboxylic acid] were 20.8 nM and under 1.83 mL/min/kg.
The matching figures for `COCCn1c(Cc2ccc(-c3cccc(OCc4ccc(F)cc4)n3)cc2F)nc2ccc(C(=O)O)cc21` [Example 256, 2-(2-fluoro-4-(6-((4-fluorobenzyl)oxy)pyridin-2-yl)benzyl)-1-(2-methoxyethyl)-1H-benzo[d]imidazole-6-carboxylic acid]: 30.6 nM and 5.33 mL/min/kg.
As for `N#Cc1ccc(COc2cccc(-c3cc(F)c(Cc4nc5ccc(C(=O)O)cc5n4Cc4nccs4)cc3F)n2)c(F)c1` [Example 707], the EC50 on GLP-1R was 4.81 nM. Also, the “Predicted Hepatic Clearance (Pred. Cl.)” value in series [1] was 4 mL/min/kg.
